From patent US11987588B2, “Modulators of the beta-3 adrenergic receptor useful for the treatment or prevention of heart failure and disorders related thereto” (Arena Pharmaceuticals, Inc., priority 2017, dated 2024)

What follows are compounds tested against Beta-3 Adrenergic Receptor (Homo sapiens (Human), UniProt P13945) (assay: Homogeneous Time-Resolved Fluorescence (HTRF) cAMP antagonist assay, IC50 determination). Settings: CHO-K1 cells stably expressing recombinant receptor, isoproterenol at EC90.
Beta-3 Adrenergic Receptor, sequence (P13945 whole entry, species assumed): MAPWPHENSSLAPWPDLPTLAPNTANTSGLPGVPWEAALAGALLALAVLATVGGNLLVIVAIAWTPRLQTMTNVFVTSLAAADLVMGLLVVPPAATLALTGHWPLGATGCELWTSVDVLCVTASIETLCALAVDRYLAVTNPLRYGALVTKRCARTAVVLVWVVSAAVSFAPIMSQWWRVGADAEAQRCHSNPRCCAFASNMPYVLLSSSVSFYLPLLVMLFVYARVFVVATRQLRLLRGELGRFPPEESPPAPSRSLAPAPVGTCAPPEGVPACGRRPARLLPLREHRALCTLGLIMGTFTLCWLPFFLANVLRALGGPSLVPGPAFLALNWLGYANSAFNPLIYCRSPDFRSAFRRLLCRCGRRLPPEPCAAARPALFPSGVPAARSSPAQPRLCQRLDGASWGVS
Format: cell-based
Summary of the method: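 CHO-K1 cells stably expressing the recombinant receptor were preincubated with compound (10-point, 5-fold dilutions; top final typically 10 or 100 μM) in PBS with 1 mM IBMX, then stimulated with isoproterenol at its EC90 for 1 h at room temperature. cAMP was read by HTRF against an on-plate standard curve.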
With `CNS(=O)(=O)c1cccc(OC[C@@H](O)CNC2COC3(CCN(S(=O)(=O)c4cccc(-c5ccc(CNCCO)cc5)c4)CC3)C2)c1` (stereo partly drawn) [Compound 304, 3-((2S)-2-hydroxy-3-(8-(4′-((2-hydroxyethylamino)methyl)biphenyl-3-ylsulfonyl)-1-oxa-8-azaspiro[4.5]decan-3-ylamino)propoxy)-N-methylbenzenesulfonamide] the IC50 was 43 nM. In the case of `CNS(=O)(=O)c1cccc(OC[C@@H](O)CNC2COC3(CCN(S(=O)(=O)c4ccc(N5CCNCC5)nc4)CC3)C2)c1` (stereo partly drawn) [Compound 430, 3-((2S)-2-hydroxy-3-(8-(6-(piperazin-1-yl)pyridin-3-ylsulfonyl)-1-oxa-8-azaspiro[4.5]decan-3-ylamino)propoxy)-N-methylbenzenesulfonamide], the IC50 is reported as 93.4 nM. `CNS(=O)(=O)c1cccc(OC[C@@H](O)CNC2COC3(CCN(S(=O)(=O)c4ccc(NC(C)=O)cc4)CC3)C2)c1` (stereo partly drawn) [Compound 42, N-(4-(3-((S)-2-hydroxy-3-(3-(N-methylsulfamoyl)phenoxy)propylamino)-1-oxa-8-azaspiro[4.5]decan-8-ylsulfonyl)phenyl)acetamide] was tested, and the IC50 was 31.9 nM. For `CNS(=O)(=O)c1cccc(OC[C@@H](O)CNC2COC3(CCN(S(=O)(=O)c4cnn(-c5ccccc5)c4C)CC3)C2)c1` (stereo partly drawn) [Compound 132, 3-((2S)-2-hydroxy-3-(8-(5-methyl-1-phenyl-1H-pyrazol-4-ylsulfonyl)-1-oxa-8-azaspiro[4.5]decan-3-ylamino)propoxy)-N-methylbenzenesulfonamide], the IC50 was 10.8 nM. With `CNS(=O)(=O)c1cccc(OC[C@@H](O)CN[C@H]2COC3(CCN(S(=O)(=O)c4cnc5c(c4)c(Cl)cn5C)CC3)C2)c1` [Compound 513, 3-((S)-3-((R)-8-(3-chloro-1-methyl-1H-pyrrolo[2,3-b]pyridin-5-ylsulfonyl)-1-oxa-8-azaspiro[4.5]decan-3-ylamino)-2-hydroxypropoxy)-N-methylbenzenesulfonamide] the IC50 was 6.36 nM. Work on `CNS(=O)(=O)c1cccc(OC[C@@H](O)CNC2COC3(CCN(S(=O)(=O)c4cccc(-c5ccc(CNCC(C)C)cc5)c4)CC3)C2)c1` (stereo partly drawn) [Compound 319, 3-((2S)-2-hydroxy-3-(8-(4′-((isobutylamino)methyl)biphenyl-3-ylsulfonyl)-1-oxa-8-azaspiro[4.5]decan-3-ylamino)propoxy)-N-methylbenzenesulfonamide] yielded an IC50 of 34.3 nM. Compound `CNS(=O)(=O)c1cccc(OC[C@@H](O)CN[C@H]2COC3(CCN(S(=O)(=O)c4cnc5c(Cl)cn(C)c5c4)CC3)C2)c1` [Compound 527, 3-((S)-3-((R)-8-(3-chloro-1-methyl-1H-pyrrolo[3,2-b]pyridin-6-ylsulfonyl)-1-oxa-8-azaspiro[4.5]decan-3-ylamino)-2-hydroxypropoxy)-N-methylbenzenesulfonamide] has an IC50 of 9.03 nM. `Cc1c(S(=O)(=O)N2CCC3(CC2)CC(NC[C@H](O)COc2cccc(S(=O)(=O)N(C)C)c2)CO3)cnn1-c1ccccc1` (stereo partly drawn) [Compound 252, 3-((2S)-2-hydroxy-3-(8-(5-methyl-1-phenyl-1H-pyrazol-4-ylsulfonyl)-1-oxa-8-azaspiro[4.5]decan-3-ylamino)propoxy)-N,N-dimethylbenzenesulfonamide] showed an IC50 of 29.3 nM. With `CNS(=O)(=O)c1cccc(OC[C@@H](O)CN[C@@H]2COC3(CCN(S(=O)(=O)c4cccc(-c5ccc(CN)cc5)c4)CC3)C2)c1` [Compound 288, 3-((S)-3-((S)-8-(4′-(aminomethyl)biphenyl-3-ylsulfonyl)-1-oxa-8-azaspiro[4.5]decan-3-ylamino)-2-hydroxypropoxy)-N-methylbenzenesulfonamide] the IC50 was 13.4 nM. Compound `CN(C)CCCNS(=O)(=O)c1cccc(OC[C@@H](O)CNC2COC3(CCN(S(=O)(=O)c4ccc(-c5ccccc5)s4)CC3)C2)c1` (stereo partly drawn) [Compound 315, N-(3-(dimethylamino)propyl)-3-((2S)-2-hydroxy-3-(8-(5-phenylthiophen-2-ylsulfonyl)-1-oxa-8-azaspiro[4.5]decan-3-ylamino)propoxy)benzenesulfonamide] has an IC50 of 1070 nM. For `CNS(=O)(=O)c1cccc(OC[C@@H](O)CNC2COC3(CCN(S(=O)(=O)c4ccc(F)c(C)c4)CC3)C2)c1` (stereo partly drawn) [Compound 149, 3-((2S)-3-(8-(4-fluoro-3-methylphenylsulfonyl)-1-oxa-8-azaspiro[4.5]decan-3-ylamino)-2-hydroxypropoxy)-N-methylbenzenesulfonamide], the IC50 was 20.6 nM. With `CNS(=O)(=O)c1cccc(OC[C@@H](O)CNC2COC3(CCN(S(=O)(=O)c4cccc(-c5cn(C)c(=O)n(C)c5=O)c4)CC3)C2)c1` (stereo partly drawn) [Compound 113, 3-((2S)-3-(8-(3-(1,3-dimethyl-2,4-dioxo-1,2,3,4-tetrahydropyrimidin-5-yl)phenylsulfonyl)-1-oxa-8-azaspiro[4.5]decan-3-ylamino)-2-hydroxypropoxy)-N-methylbenzenesulfonamide] the IC50 was 213 nM. Compound `CNS(=O)(=O)c1cccc(OC[C@@H](O)CN[C@H]2COC3(CCN(S(=O)(=O)c4cnc5cc(F)ccc5c4O)CC3)C2)c1` [Compound 539, 3-((S)-3-((R)-8-(7-fluoro-4-hydroxyquinolin-3-ylsulfonyl)-1-oxa-8-azaspiro[4.5]decan-3-ylamino)-2-hydroxypropoxy)-N-methylbenzenesulfonamide] has an IC50 of 26 nM. `CNS(=O)(=O)c1cccc(OC[C@@H](O)CNC2COC3(CCN(S(=O)(=O)c4cc5c(nc4Cl)OCCN5C)CC3)C2)c1` (stereo partly drawn) [Compound 400, 3-((2S)-3-(8-(6-chloro-1-methyl-2,3-dihydro-1H-pyrido[2,3-b][1,4]oxazin-7-ylsulfonyl)-1-oxa-8-azaspiro[4.5]decan-3-ylamino)-2-hydroxypropoxy)-N-methylbenzenesulfonamide] gave an IC50 of 33.1 nM. In the case of `CNS(=O)(=O)c1cccc(OC[C@@H](O)CNC2COC3(CCN(S(=O)(=O)c4ccc5cc(Cl)ccc5c4)CC3)C2)c1` (stereo partly drawn) [Compound 264, 3-((2S)-3-(8-(6-chloronaphthalen-2-ylsulfonyl)-1-oxa-8-azaspiro[4.5]decan-3-ylamino)-2-hydroxypropoxy)-N-methylbenzenesulfonamide], the IC50 is reported as 39 nM. With `CNS(=O)(=O)c1cccc(OC[C@@H](O)CNC2COC3(CCN(S(=O)(=O)c4ccc5c(c4)N(C(C)C)CCO5)CC3)C2)c1` (stereo partly drawn) [Compound 334, 3-((2S)-2-hydroxy-3-(8-(4-isopropyl-3,4-dihydro-2H-benzo[b][1,4]oxazin-6-ylsulfonyl)-1-oxa-8-azaspiro[4.5]decan-3-ylamino)propoxy)-N-methylbenzenesulfonamide] the IC50 was 27.3 nM. For `CCNS(=O)(=O)c1cccc(OC[C@@H](O)CNC2COC3(CCN(S(=O)(=O)c4cccc(-c5ccc(N)nc5)c4)CC3)C2)c1` (stereo partly drawn) [Compound 212, 3-((2S)-3-(8-(3-(6-aminopyridin-3-yl)phenylsulfonyl)-1-oxa-8-azaspiro[4.5]decan-3-ylamino)-2-hydroxypropoxy)-N-ethylbenzenesulfonamide], the IC50 was 13.6 nM. With `CNS(=O)(=O)c1cccc(OC[C@@H](O)CNC2COC3(CCN(S(=O)(=O)c4cccc(-c5ccccc5)c4)CC3)C2)c1` (stereo partly drawn) [Compound 31, 3-((2S)-3-(8-(biphenyl-3-ylsulfonyl)-1-oxa-8-azaspiro[4.5]decan-3-ylamino)-2-hydroxypropoxy)-N-methylbenzenesulfonamide] the IC50 was 21 nM. `CNS(=O)(=O)c1cccc(OC[C@@H](O)CN[C@H]2COC3(CCN(S(=O)(=O)c4cnc5[nH]nc(C)c5c4)CC3)C2)c1` [Compound 497, 3-((S)-2-hydroxy-3-((R)-8-(3-methyl-1H-pyrazolo[3,4-b]pyridin-5-ylsulfonyl)-1-oxa-8-azaspiro[4.5]decan-3-ylamino)propoxy)-N-methylbenzenesulfonamide] gave an IC50 of 16.4 nM. `CNS(=O)(=O)c1cccc(OC[C@@H](O)CN[C@H]2COC3(CCN(S(=O)(=O)c4cnc5nc[nH]c5c4)CC3)C2)c1` [Compound 495, 3-((S)-3-((R)-8-(1H-imidazo[4,5-b]pyridin-6-ylsulfonyl)-1-oxa-8-azaspiro[4.5]decan-3-ylamino)-2-hydroxypropoxy)-N-methylbenzenesulfonamide] gave an IC50 of 50.6 nM. `CNS(=O)(=O)c1cccc(OC[C@@H](O)CNC2COC3(CCN(S(=O)(=O)c4ccc(N5CCOCC5)nc4)CC3)C2)c1` (stereo partly drawn) [Compound 406, 3-((2S)-2-hydroxy-3-(8-(6-morpholinopyridin-3-ylsulfonyl)-1-oxa-8-azaspiro[4.5]decan-3-ylamino)propoxy)-N-methylbenzenesulfonamide] gave an IC50 of 31.1 nM. For `CNS(=O)(=O)c1cccc(OC[C@@H](O)CNC2COC3(CCN(S(=O)(=O)c4ccn(C)n4)CC3)C2)c1` (stereo partly drawn) [Compound 193, 3-((2S)-2-hydroxy-3-(8-(1-methyl-1H-pyrazol-3-ylsulfonyl)-1-oxa-8-azaspiro[4.5]decan-3-ylamino)propoxy)-N-methylbenzenesulfonamide], the IC50 was 54.8 nM. For `CNS(=O)(=O)c1cccc(OC[C@@H](O)CNC2COC3(CCN(S(=O)(=O)c4cccc(Cl)c4)CC3)C2)c1` (stereo partly drawn) [Compound 15, 3-((2S)-3-(8-(3-chlorophenylsulfonyl)-1-oxa-8-azaspiro[4.5]decan-3-ylamino)-2-hydroxypropoxy)-N-methylbenzenesulfonamide], the IC50 was 12.4 nM. `CNS(=O)(=O)c1cccc(OC[C@@H](O)CN[C@H]2COC3(CCN(c4nccc(Cc5ccccc5)n4)CC3)C2)c1` [Compound 573, 3-((S)-3-((R)-8-(4-benzylpyrimidin-2-yl)-1-oxa-8-azaspiro[4.5]decan-3-ylamino)-2-hydroxypropoxy)-N-methylbenzenesulfonamide] gave an IC50 of 115 nM. For `CNS(=O)(=O)c1cccc(OC[C@@H](O)CNC2COC3(CCN(S(=O)(=O)c4ccc(Oc5ccccc5)nc4)CC3)C2)c1` (stereo partly drawn) [Compound 130, 3-((2S)-2-hydroxy-3-(8-(6-phenoxypyridin-3-ylsulfonyl)-1-oxa-8-azaspiro[4.5]decan-3-ylamino)propoxy)-N-methylbenzenesulfonamide], the IC50 was 8.32 nM. With `CN(C)S(=O)(=O)c1cccc(OC[C@@H](O)CNC2COC3(CCN(S(=O)(=O)c4ccc(-c5ccccc5)s4)CC3)C2)c1` (stereo partly drawn) [Compound 255, 3-((2S)-2-hydroxy-3-(8-(5-phenylthiophen-2-ylsulfonyl)-1-oxa-8-azaspiro[4.5]decan-3-ylamino)propoxy)-N,N-dimethylbenzenesulfonamide] the IC50 was 55.1 nM.
